MIC and MIC80 data for 17 compounds are collected here from ChEMBL document CHEMBL4396865, “Current advances of triazole alcohols derived from fluconazole: Design, in vitro and in silico studies” (2019).

Assay type in all cases: functional
The test system of assay [1] is Candida albicans. Nature of the assay: Antifungal activity against Candida albicans after 24 hrs by NCCLS protocol based method.
In assay [2] the test system is Candida tropicalis. Briefly: Antifungal activity against Candida tropicalis after 24 hrs by NCCLS protocol based method.
The subject of another assay is Nannizzia gypsea. Nature of the assay: Antifungal activity against Microsporum gypseum after 7 days by NCCLS protocol based method. As to conditions: 168 h.
For a further assay, the system named is Trichophyton rubrum. Nature of the assay: Antifungal activity against Trichophyton rubrum after 7 days by NCCLS protocol based method. As to conditions: 168 h.
Assay [3] concerns Cryptococcus neoformans. Nature of the assay: Antifungal activity against Cryptococcus neoformans after 72 hrs by NCCLS protocol based method.
In assay [4] the test system is Candida parapsilosis. Nature of the assay: Antifungal activity against Candida parapsilosis. As to conditions: Lodderomyces parapsilosis.
A further assay relates to Pichia kudriavzevii. Nature of the assay: Antifungal activity against Candida krusei.
The subject of assay [5] is Cryptococcus neoformans. Briefly: Antifungal activity against Cryptococcus neoformans. Particulars: Cryptococcus neoformans.
Assay [6] deals with Candida albicans. Briefly: Antifungal activity against Candida albicans. As to conditions: Candida albicans.
Assay [7] relates to Candida tropicalis. Briefly: Antifungal activity against Candida tropicalis. As to conditions: Candida tropicalis.
In a further assay the test system is Fonsecaea compacta. Nature of the assay: Antifungal activity against Fonsecaea compacta after 24 hrs by NCCLS protocol based method.
Assay [8] concerns Candida parapsilosis. Briefly: Antifungal activity against Candida parapsilosis after 24 hrs by NCCLS protocol based method. As to conditions: Lodderomyces parapsilosis.

Molecules are shown by their SMILES. Converted amounts (≈) assume the structure as drawn.

On to `CN(CCCCOc1ccc(Cl)cc1)CC(O)(Cn1cncn1)c1ccc(F)cc1F` (stereo not given), for which the MIC with Candida albicans [1], in the assay on Candida tropicalis [2], in the assay on Nannizzia gypsea, with Trichophyton rubrum and with Cryptococcus neoformans [3] was 1 ng/mL (≈ 2.22 nM) in each case.

As for `CN(CC(=O)Nc1cc(Cl)ccc1Cl)CC(O)(Cn1cncn1)c1ccc(F)cc1F` (stereo not given), the MIC80 was 250 to 1000 ng/mL (≈ 532 to 2130 nM) in the assay with Candida parapsilosis [4]; 250 to 1000 ng/mL (≈ 532 to 2130 nM) in the assay on Pichia kudriavzevii; 15.6 ng/mL (≈ 33.2 nM) against Cryptococcus neoformans [5]; 15.6 ng/mL (≈ 33.2 nM) against Candida albicans [6]; 250 to 1000 ng/mL (≈ 532 to 2130 nM) in the assay on Candida tropicalis [7].

Take `CN(CCCOc1ccc(Cl)cc1)CC(O)(Cn1cncn1)c1ccc(F)cc1F` (stereo not given): the MIC in the assay on Candida albicans [1], in the assay on Candida tropicalis [2], in the assay with Nannizzia gypsea, against Trichophyton rubrum and in the assay with Cryptococcus neoformans [3] was 1 ng/mL (≈ 2.29 nM) throughout.

Turning to `Cc1ccccc1OCCCN(C)CC(O)(Cn1cncn1)c1ccc(F)cc1F` (stereo not given), the minimum inhibitory concentration (MIC) against Candida albicans [1], against Candida tropicalis [2], in the assay with Nannizzia gypsea, against Trichophyton rubrum and with Cryptococcus neoformans [3] was 1 to 16 ng/mL (≈ 2.4 to 38.4 nM) in each case.

On to `COc1ccccc1NC(=O)CN(C)CC(O)(Cn1cncn1)c1ccc(F)cc1F` (stereo not given), for which the MIC80 is 250 to 1000 ng/mL (≈ 579 to 2320 nM) with Candida parapsilosis [4]; 250 to 1000 ng/mL (≈ 579 to 2320 nM) in the assay with Pichia kudriavzevii; 15.6 ng/mL (≈ 36.2 nM) with Cryptococcus neoformans [5]; 15.6 ng/mL (≈ 36.2 nM) in the assay with Candida albicans [6]; 250 to 1000 ng/mL (≈ 579 to 2320 nM) against Candida tropicalis [7].

As for `COc1cccc(NC(=O)CN(C)CC(O)(Cn2cncn2)c2ccc(F)cc2F)c1` (stereo not given), the MIC80 against Candida parapsilosis [4] is 250 to 1000 ng/mL (≈ 579 to 2320 nM); with Pichia kudriavzevii, 250 to 1000 ng/mL (≈ 579 to 2320 nM); against Cryptococcus neoformans [5] it was 15.6 ng/mL (≈ 36.2 nM); against Candida albicans [6], 15.6 ng/mL (≈ 36.2 nM); against Candida tropicalis [7], 250 to 1000 ng/mL (≈ 579 to 2320 nM).

`CN(CCCOc1ccccc1Cl)CC(O)(Cn1cncn1)c1ccc(F)cc1F` (stereo not given): the minimum inhibitory concentration (MIC) against Candida albicans [1], in the assay with Candida tropicalis [2], in the assay with Nannizzia gypsea, with Trichophyton rubrum and with Cryptococcus neoformans [3] was 1 to 16 ng/mL (≈ 2.29 to 36.6 nM) throughout.

For the compound `Cc1cccc(OCCCCN(C)CC(O)(Cn2cncn2)c2ccc(F)cc2F)c1` (stereo not given), the MIC with Candida albicans [1], against Candida tropicalis [2], with Nannizzia gypsea, in the assay on Trichophyton rubrum and against Cryptococcus neoformans [3] was 1 ng/mL (≈ 2.32 nM) each time.

As for `COc1ccc(OCCCN(C)CC(O)(Cn2cncn2)c2ccc(F)cc2F)cc1` (stereo not given), the minimal inhibitory concentration (MIC) in the assay on Candida albicans [1], against Candida tropicalis [2], in the assay with Nannizzia gypsea, in the assay on Trichophyton rubrum and in the assay with Cryptococcus neoformans [3] was 1 to 16 ng/mL (≈ 2.31 to 37 nM) each time.

As to `O=C(OC1CCN(CC(O)(Cn2cncn2)c2ccc(F)cc2F)CC1)c1ccc([N+](=O)[O-])cc1` (stereo not given), the MIC80 in the assay with Fonsecaea compacta, against Candida albicans [1], against Candida parapsilosis [8], in the assay with Candida tropicalis [2], in the assay on Trichophyton rubrum and with Cryptococcus neoformans [3] was 3.9 to 62.5 ng/mL (≈ 8 to 128 nM) throughout.

In the case of `CN(CCCCOc1ccccc1[N+](=O)[O-])CC(O)(Cn1cncn1)c1ccc(F)cc1F` (stereo not given), the minimum inhibitory concentration (MIC) in the assay on Candida albicans [1], with Candida tropicalis [2], against Nannizzia gypsea, against Trichophyton rubrum and with Cryptococcus neoformans [3] was 1 to 16 ng/mL (≈ 2.17 to 34.7 nM) in each case.

`Cc1ccc(C(=O)OC2CCN(CC(O)(Cn3cncn3)c3ccc(F)cc3F)CC2)c(C)c1` (stereo not given): the MIC80 in the assay on Fonsecaea compacta, in the assay on Candida albicans [1], in the assay on Candida parapsilosis [8], in the assay on Candida tropicalis [2], in the assay on Trichophyton rubrum and in the assay with Cryptococcus neoformans [3] was 3.9 to 62.5 ng/mL (≈ 8.29 to 133 nM) throughout.

`CN(CCCOc1ccc([N+](=O)[O-])cc1)CC(O)(Cn1cncn1)c1ccc(F)cc1F` (stereo not given): the MIC in the assay on Candida albicans [1], with Candida tropicalis [2], with Nannizzia gypsea, against Trichophyton rubrum and with Cryptococcus neoformans [3] was 1 ng/mL (≈ 2.23 nM) throughout.

With `Cc1ccc(C(=O)OC2CCN(CC(O)(Cn3cncn3)c3ccc(F)cc3F)CC2)cc1` (stereo not given), the MIC80 against Fonsecaea compacta, with Candida albicans [1], against Candida parapsilosis [8], in the assay with Candida tropicalis [2], against Trichophyton rubrum and against Cryptococcus neoformans [3] was 3.9 to 62.5 ng/mL (≈ 8.54 to 137 nM) throughout.

Consider `CN(CCCOc1cccc([N+](=O)[O-])c1)CC(O)(Cn1cncn1)c1ccc(F)cc1F` (stereo not given), for which the MIC in the assay on Candida albicans [1], in the assay with Candida tropicalis [2], against Nannizzia gypsea, against Trichophyton rubrum and in the assay with Cryptococcus neoformans [3] was 1 to 16 ng/mL (≈ 2.23 to 35.8 nM) throughout.

As for `O=C(OC1CCN(CC(O)(Cn2cncn2)c2ccc(F)cc2F)CC1)c1cccc(F)c1` (stereo not given), the MIC80 against Fonsecaea compacta, with Candida albicans [1], with Candida parapsilosis [8], in the assay with Candida tropicalis [2], against Trichophyton rubrum and against Cryptococcus neoformans [3] was 3.9 to 62.5 ng/mL (≈ 8.47 to 136 nM) in each case.

Turning to `O=C(OC1CCN(CC(O)(Cn2cncn2)c2ccc(F)cc2F)CC1)c1ccccc1Cl` (stereo not given), the MIC80 in the assay on Fonsecaea compacta, in the assay on Candida albicans [1], in the assay on Candida parapsilosis [8], in the assay on Candida tropicalis [2], in the assay with Trichophyton rubrum and against Cryptococcus neoformans [3] was 3.9 to 62.5 ng/mL (≈ 8.18 to 131 nM) throughout.
